According to US5885986A, “Oxazolyl- and thiazolylimidazo-benzo- and thienodiazepines and their use as medicaments” (Hoffmann-La Roche Inc., priority 1994, dated 1999):
Where two headings read alike, the source gives them in different places.

Experiments:
[1] = target: central benzodiazepine receptors; test: inhibition of the binding of tritiated flumazenil to the specific benzodiazepine receptors in the cortex of rats; conditions: read-out: Affinity to benzodiazepine receptors IC50
Protocol: The affinity of compounds of general formula I to the central benzodiazepine receptors has been established in vitro according to the methods described in Nature 294, 763-765 (1981) and J. Neurochemistry 37, 714-722 (1981). According to these methods, the inhibition of the binding of tritiated flumazenil to the specific benzodiazepine receptors in the cortex of rats by the respective test substances is determined. The IC50 ("50% inhibiting concentration") denotes that concentration of the respective test substance which brings about a 50 percent inhibition of the specific binding of tritiated flumazenil to the specific benzodiazepine receptors in the cortex of rats.

[2] = rotating rod test (sedative/muscle relaxant properties); assay type: in vivo, mice; conditions: Mus musculus, iv, i.v., read-out: Rotating rod test, ED550
Protocol: The sedative/muscle relaxant properties of the compounds of formula I in accordance with the invention can be determined, for example, in the rotating rod test. Mice weighing 19-21 g are used for this test. They have free access to feed and drinking water up to 1 h before the beginning of the test. They are brought into the test laboratory at least 30 min. before the test. In the rotating rod test the animals are placed on a horizontally arranged, smooth metal rod having a diameter of 3 cm, which is rotated at 2 revolutions per min. Initially, the animals are given the opportunity of familiarizing themselves with the test situation for 30 sec. Subsequently, those animals which succeed in remaining on the rod for at least 1 min. are selected. These animals are then given the test preparations intravenously in different dosages. At various points in time it is then determined whether the animals are able to remain on the rod for a minimum period (minimum period: 10 sec.; from 5 min. after administration: 1 min.). That dosage at which 50% of the animals are capable of remaining on the rod (ED50) is determined.

[3] = 15 s, 15 sec after administration
[4] = 0.5 min, 30 sec after administration
[5] = 1 min, 60 sec after administration
[6] = 2 min, 2 min after administration
[7] = 5 min, 5 min after administration
[8] = 0.25 h, 15 min after administration
[9] = 0.5 h, 30 min after administration
[10] = 1 h, 60 min after administration

`CCCN(CCC)Cc1csc(-c2ncn3c2[C@@H]2CCCN2C(=O)c2c(Cl)cccc2-3)n1` [K, (S)-8-chloro-1-(4-dipropylaminomethyl-thiazol-2-yl)-11,12,13,13a-tetrahydro-9H-imidazo[1,5-a]pyrrolo[2,1-c][1,4]benzodiazepin-9-one] showed an IC50 [1] of 15 nM, an ED50 [2, 3] of 1.8 mg/kg and an ED50 [2, 4] of 1.8 mg/kg. For the same compound, the ED50 [2, 5] was 5.6 mg/kg, the ED50 [2, 6] was 3.7 mg/kg and the ED50 [2, 7] was 5.6 mg/kg. It also gave an ED50 [2, 8] of at least 10 mg/kg, an ED50 [2, 9] of at least 10 mg/kg and an ED50 [2, 10] of over 10 mg/kg.
In the case of `CCCN(CCC)Cc1csc(-c2ncn3c2[C@@H]2CCN2C(=O)c2c(Cl)cccc2-3)n1` [E, (S)-8-chloro-1-(4-dipropylaminomethyl-thiazol-2-yl)-12,12a-dihydro-9H,11H-azeto[2,1-c]imidazo[1,5-a][1,4]benzodiazepin-9-one], the IC50 [1] is reported as 11 nM, the ED50 [2, 3] is reported as 0.3 mg/kg and the ED50 [2, 4] is reported as 0.3 mg/kg. The ED50 [2, 5] was 0.3 mg/kg, the ED50 [2, 6] was 0.9 mg/kg and the ED50 [2, 7] was 1 mg/kg. It also gave an ED50 [2, 8] of 3.2 mg/kg, an ED50 [2, 9] of at least 10 mg/kg and an ED50 [2, 10] of over 10 mg/kg.
In the case of `CCCN(CCC)Cc1csc(-c2ncn3c2CN(C)C(=O)c2c(Cl)cccc2-3)n1` [J, 7-chloro-3-(4-dipropylaminomethyl-thiazol-2-yl)-5-methyl-5,6-dihydro-4H-imidazo[1,5-a][1,4]benzodiazepin-6-one], the IC50 [1] is reported as 5.2 nM, the ED50 [2, 3] is reported as 0.7 mg/kg and the ED50 [2, 4] is reported as 0.9 mg/kg. It also gave an ED50 [2, 5] of 2.3 mg/kg, an ED50 [2, 6] of at least 10 mg/kg and an ED50 [2, 7] of at least 10 mg/kg. The ED50 [2, 8] was over 10 mg/kg, the ED50 [2, 9] was over 10 mg/kg and the ED50 [2, 10] was over 10 mg/kg.
With `CCCN(CCC)Cc1cnc(-c2ncn3c2CN(C)C(=O)c2ccccc2-3)o1` [F, 3-(5-dipropylaminomethyl-oxazol-2-yl)-5-methyl-5,6-dihydro-4H-imidazo[1,5-a][1,4]benzodiazepin-6-one] the IC50 [1] was 66 nM, the ED50 [2, 3] was 1.7 mg/kg and the ED50 [2, 4] was 3.9 mg/kg. The ED50 [2, 5] was 4.7 mg/kg, the ED50 [2, 6] was at least 10 mg/kg and the ED50 [2, 7] was at least 10 mg/kg. The ED50 [2, 8] was over 10 mg/kg, the ED50 [2, 9] was over 10 mg/kg and the ED50 [2, 10] was over 10 mg/kg.
`CCCN(CCC)Cc1cnc(-c2ncn3c2[C@@H]2CCN2C(=O)c2c(Cl)cccc2-3)o1` [A, (S)-8-chloro-1-(5-dipropylaminomethyl-oxazol-2-yl)-12,12a-dihydro-9H,11H-azeto[2,1-c]imidazo[1,5-a][1,4]benzodiazepin-9-one] gave an IC50 [1] of 32 nM, an ED50 [2, 3] of 0.3 mg/kg and an ED50 [2, 4] of 0.4 mg/kg. It also gave an ED50 [2, 5] of 0.6 mg/kg, an ED50 [2, 6] of 1.1 mg/kg and an ED50 [2, 7] of 1.8 mg/kg. The ED50 [2, 8] was over 10 mg/kg, the ED50 [2, 9] was over 10 mg/kg and the ED50 [2, 10] was over 10 mg/kg.
In the case of `CCCN(CCC)Cc1coc(-c2ncn3c2CN(C)C(=O)c2c(Cl)cccc2-3)n1` [M, 7-chloro-3-(4-dipropylaminomethyl-oxazol-2-yl)-5-methyl-5,6-dihydro-4H-imidazo[1,5-a][1,4]benzodiazepin-6-one], the IC50 [1] is reported as 15 nM, the ED50 [2, 3] is reported as 0.4 mg/kg and the ED50 [2, 4] is reported as 1 mg/kg. For the same compound, the ED50 [2, 5] was 1.2 mg/kg, the ED50 [2, 6] was 3 mg/kg and the ED50 [2, 7] was 3.7 mg/kg. For the same compound, the ED50 [2, 8] was 8.8 mg/kg, the ED50 [2, 9] was at least 10 mg/kg and the ED50 [2, 10] was over 10 mg/kg.
`CCCN(CCC)Cc1csc(-c2ncn3c2CN(C)C(=O)c2c-3ccc(F)c2Cl)n1` [L, 7-chloro-3-(4-dipropylaminomethyl-thiazol-2-yl)-8-fluoro-5-methyl-5,6-dihydro-4H-imidazo[1,5-a][1,4]benzodiazepin-6-one] showed an IC50 [1] of 16 nM, an ED50 [2, 3] of 1.1 mg/kg and an ED50 [2, 4] of 1.1 mg/kg. It also gave an ED50 [2, 5] of 1.1 mg/kg, an ED50 [2, 6] of 2.8 mg/kg and an ED50 [2, 7] of 4.7 mg/kg. For the same compound, the ED50 [2, 8] was 5.7 mg/kg, the ED50 [2, 9] was at least 10 mg/kg and the ED50 [2, 10] was over 10 mg/kg.
With `CCCCN(CCCC)Cc1cnc(-c2ncn3c2CN(C)C(=O)c2cc(F)ccc2-3)o1` [H, 3-(5-dibutylaminomethyl-oxazol-2-yl)-8-fluoro-5-methyl-5,6-dihydro-4H-imidazo[1,5-a][1,4]benzodiazepin-6-one] the IC50 [1] was 35 nM, the ED50 [2, 3] was 1.1 mg/kg and the ED50 [2, 4] was 1.1 mg/kg. It also gave an ED50 [2, 5] of 1.2 mg/kg, an ED50 [2, 6] of 2.1 mg/kg and an ED50 [2, 7] of 3.4 mg/kg. It also gave an ED50 [2, 8] of at least 10 mg/kg, an ED50 [2, 9] of over 10 mg/kg and an ED50 [2, 10] of over 10 mg/kg.
`CCCN(CCC)Cc1cnc(-c2ncn3c2CN(C)C(=O)c2c(Cl)cccc2-3)o1` [G, 7-chloro-3-(5-dipropylaminomethyl-oxazol-2-yl)-5-methyl-5,6-dihydro-4H-imidazo[1,5-a][1,4]benzodiazepin-6-one] gave an IC50 [1] of 4 nM, an ED50 [2, 3] of 1 mg/kg and an ED50 [2, 4] of 1.2 mg/kg. The ED50 [2, 5] was 1.8 mg/kg, the ED50 [2, 6] was 2.1 mg/kg and the ED50 [2, 7] was 3 mg/kg. It also gave an ED50 [2, 8] of 3.4 mg/kg, an ED50 [2, 9] of 5.6 mg/kg and an ED50 [2, 10] of over 10 mg/kg.
With `CCCN(CCC)Cc1cnc(-c2ncn3c2CN(C)C(=O)c2sccc2-3)o1` [I, 3-(5-dipropylaminomethyl-oxazol-2-yl)-5-methyl-5,6-dihydro-4H-imidazo[1,5-a]thieno[2,3-f][1,4]diazepin-6-one] the IC50 [1] was 17 nM, the ED50 [2, 3] was 1.8 mg/kg and the ED50 [2, 4] was 1.7 mg/kg. For the same compound, the ED50 [2, 5] was 3.4 mg/kg, the ED50 [2, 6] was 3.9 mg/kg and the ED50 [2, 7] was 8.7 mg/kg. For the same compound, the ED50 [2, 8] was over 10 mg/kg, the ED50 [2, 9] was over 10 mg/kg and the ED50 [2, 10] was over 10 mg/kg.
`CCCN(CCC)Cc1cnc(-c2ncn3c2CN(C)C(=O)c2c-3ccc(F)c2Cl)o1` [C, 7-chloro-3-(5-dipropylaminomethyl-oxazol-2-yl)-8-fluoro-5-methyl-5,6-dihydro-4H-imidazo[1,5-a][1,4]benzodiazepin-6-one] showed an IC50 [1] of 7 nM, an ED50 [2, 3] of 0.3 mg/kg and an ED50 [2, 4] of 0.3 mg/kg. The ED50 [2, 5] was 0.5 mg/kg, the ED50 [2, 6] was 0.7 mg/kg and the ED50 [2, 7] was 1.6 mg/kg. It also gave an ED50 [2, 8] of 2 mg/kg, an ED50 [2, 9] of over 10 mg/kg and an ED50 [2, 10] of at least 10 mg/kg.
`CCCN(CCC)Cc1cnc(-c2ncn3c2CN(C)C(=O)c2cc(F)ccc2-3)o1` [B, 3-(5-dipropylaminomethyl-oxazol-2-yl)-8-fluoro-5-methyl-5,6-dihydro-4H-imidazo[1,5-a][1,4]benzodiazepin-6-one] showed an IC50 [1] of 59 nM, an ED50 [2, 3] of 0.3 mg/kg and an ED50 [2, 4] of 0.5 mg/kg. The ED50 [2, 5] was 0.7 mg/kg, the ED50 [2, 6] was 1.6 mg/kg and the ED50 [2, 7] was 2.6 mg/kg. It also gave an ED50 [2, 8] of 4.9 mg/kg, an ED50 [2, 9] of over 10 mg/kg and an ED50 [2, 10] of over 10 mg/kg.
`CCCN(CCC)Cc1cnc(-c2ncn3c2[C@@H]2CCN2C(=O)c2sccc2-3)o1` [D, (S)-1-(5-dipropylaminomethyl-oxazol-2-yl)-11,11a-dihydro-8H,10H-azeto[1,2-a]imidazo[5,1-c]thieno[3,2-e][1,4]diazepin-8-one] gave an IC50 [1] of 7 nM, an ED50 [2, 3] of 0.1 mg/kg and an ED50 [2, 4] of 0.2 mg/kg. For the same compound, the ED50 [2, 5] was 0.4 mg/kg, the ED50 [2, 6] was 0.5 mg/kg and the ED50 [2, 7] was 1.8 mg/kg. For the same compound, the ED50 [2, 8] was 3.6 mg/kg, the ED50 [2, 9] was over 10 mg/kg and the ED50 [2, 10] was over 10 mg/kg.
